Measured values from PubChem BioAssay AID1963840 (Molecular Pharmacology Branch, DTP, NCI, 2024).

Tested on: 695427-040-R-J1-PDC complex spheroid viability
Assay: Anticancer human tumor 695427-040-R-J1-PDC patient-derived colon adenocarcinoma cell line growth inhibition [POLQ]
Conditions: for IC50: curve of first compound; for viability, T/C: stronger effect = lower value
In short: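 Patient-derived tumour cells were co-cultured with HUVEC and mesenchymal stem cells as multicellular spheroids at 37 °C. They were treated with POLQ inhibitors (novobiocin, ART-558, RP6685) alone or combined with other agents. Top concentrations were at or near clinical Cmax (otherwise 10 microM; SN-38 at 1 microM), decreasing in half-log steps.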

[1] = second compound 0.0316 µM, first compound 0.0316 µM
[2] = second compound 0.0316 µM, first compound 0.1 µM
[3] = second compound 0.0316 µM, first compound 0.316 µM
[4] = second compound 0.0316 µM, first compound 1 µM
[5] = second compound 0.0316 µM, first compound 3.16 µM
[6] = second compound 0.0316 µM, first compound 10 µM
[7] = second compound 0.1 µM, first compound 0.0316 µM
[8] = second compound 0.1 µM, first compound 0.1 µM
[9] = second compound 0.1 µM, first compound 0.316 µM
[10] = second compound 0.1 µM, first compound 1 µM
[11] = second compound 0.1 µM, first compound 3.16 µM
[12] = second compound 0.1 µM, first compound 10 µM
[13] = second compound 0.316 µM, first compound 0.0316 µM
[14] = second compound 0.316 µM, first compound 0.1 µM
[15] = second compound 0.316 µM, first compound 0.316 µM
[16] = second compound 0.316 µM, first compound 1 µM
[17] = second compound 0.316 µM, first compound 3.16 µM
[18] = second compound 0.316 µM, first compound 10 µM
[19] = second compound 1 µM, first compound 0.0316 µM
[20] = second compound 1 µM, first compound 0.1 µM
[21] = second compound 1 µM, first compound 0.316 µM
[22] = second compound 1 µM, first compound 1 µM
[23] = second compound 1 µM, first compound 3.16 µM
[24] = second compound 1 µM, first compound 10 µM
[25] = second compound 3.16 µM, first compound 0.0316 µM
[26] = second compound 3.16 µM, first compound 0.1 µM
[27] = second compound 3.16 µM, first compound 0.316 µM
[28] = second compound 3.16 µM, first compound 1 µM
[29] = second compound 3.16 µM, first compound 3.16 µM
[30] = second compound 3.16 µM, first compound 10 µM
[31] = second compound 10 µM, first compound 0.0316 µM
[32] = second compound 10 µM, first compound 0.1 µM
[33] = second compound 10 µM, first compound 0.316 µM
[34] = second compound 10 µM, first compound 1 µM
[35] = second compound 10 µM, first compound 3.16 µM
[36] = second compound 10 µM, first compound 10 µM
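Note: spheroids exposed to compounds for seven days.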
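Throughout, for viability, T/C: 100% = DMSO vehicle control viability.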

## Nc1ccn(C2OC(CO)C(O)C2(F)F)c(=O)n1 (stereo unspecified) + COC1C(OC(N)=O)C(O)C(Oc2ccc3c(O)c(NC(=O)c4ccc(O)c(CC=C(C)C)c4)c(=O)oc3c2C)OC1(C)C
Second compound 0.0316 µM
  IC50: > 10 µM
Second compound 0.1 µM
  IC50: > 10 µM
Second compound 0.316 µM
  IC50: > 10 µM
Second compound 1 µM
  IC50: > 10 µM
Second compound 3.16 µM
  IC50: > 10 µM
Second compound 10 µM
  IC50: > 10 µM
[1]
  viability, T/C: 82%
[2]
  viability, T/C: 81.5%
[3]
  viability, T/C: 75.1%
[4]
  viability, T/C: 72.2%
[5]
  viability, T/C: 63.9%
[6]
  viability, T/C: 55.2%
[7]
  viability, T/C: 91.1%
[8]
  viability, T/C: 82.6%
[9]
  viability, T/C: 73.1%
[10]
  viability, T/C: 70%
[11]
  viability, T/C: 68.3%
[12]
  viability, T/C: 50.5%
[13]
  viability, T/C: 96.2%
[14]
  viability, T/C: 78.5%
[15]
  viability, T/C: 76.6%
[16]
  viability, T/C: 70.2%
[17]
  viability, T/C: 63.5%
[18]
  viability, T/C: 47.6%
[19]
  viability, T/C: 92%
[20]
  viability, T/C: 84%
[21]
  viability, T/C: 71.8%
[22]
  viability, T/C: 70%
[23]
  viability, T/C: 62.5%
[24]
  viability, T/C: 48.6%
[25]
  viability, T/C: 89.2%
[26]
  viability, T/C: 81.9%
[27]
  viability, T/C: 72.5%
[28]
  viability, T/C: 67%
[29]
  viability, T/C: 63.2%
[30]
  viability, T/C: 52.1%
[31]
  viability, T/C: 93.1%
[32]
  viability, T/C: 82.3%
[33]
  viability, T/C: 75.3%
[34]
  viability, T/C: 73.1%
[35]
  viability, T/C: 66.4%
[36]
  viability, T/C: 52.1%

## CCCS(=O)(=O)Nc1ccc(F)c(C(=O)c2c[nH]c3ncc(-c4ccc(Cl)cc4)cc23)c1F + Cc1cccc(N(C)C(=O)C2C(O)CCN2c2nc(C)cc(C(F)(F)F)c2C#N)c1
Second compound 0.0316 µM
  IC50: > 10 µM
Second compound 0.1 µM
  IC50: > 10 µM
Second compound 0.316 µM
  IC50: > 10 µM
Second compound 1 µM
  IC50: > 10 µM
Second compound 3.16 µM
  IC50: > 10 µM
Second compound 10 µM
  IC50: > 10 µM
[1]
  viability, T/C: 113%
[2]
  viability, T/C: 105%
[3]
  viability, T/C: 102%
[4]
  viability, T/C: 100%
[5]
  viability, T/C: 116%
[6]
  viability, T/C: 86.8%
[7]
  viability, T/C: 129%
[8]
  viability, T/C: 111%
[9]
  viability, T/C: 104%
[10]
  viability, T/C: 109%
[11]
  viability, T/C: 111%
[12]
  viability, T/C: 82.6%
[13]
  viability, T/C: 101%
[14]
  viability, T/C: 118%
[15]
  viability, T/C: 96.3%
[16]
  viability, T/C: 109%
[17]
  viability, T/C: 123%
[18]
  viability, T/C: 77.5%
[19]
  viability, T/C: 112%
[20]
  viability, T/C: 111%
[21]
  viability, T/C: 102%
[22]
  viability, T/C: 108%
[23]
  viability, T/C: 127%
[24]
  viability, T/C: 73.2%
[25]
  viability, T/C: 100%
[26]
  viability, T/C: 104%
[27]
  viability, T/C: 103%
[28]
  viability, T/C: 114%
[29]
  viability, T/C: 112%
[30]
  viability, T/C: 104%
[31]
  viability, T/C: 101%
[32]
  viability, T/C: 100%
[33]
  viability, T/C: 92%
[34]
  viability, T/C: 98.8%
[35]
  viability, T/C: 108%
[36]
  viability, T/C: 77.9%

## C#Cc1c(F)ccc2cc(O)cc(-c3ncc4c(N5CC6CCC(C5)N6)nc(OCC56CCCN5CC(F)C6)nc4c3F)c12 (stereo unspecified) + Nc1ccc(C#CCN(C(=O)Cc2ncc(C(F)(F)F)cc2C(F)(F)F)c2ccc(F)cc2)nn1
Second compound 0.0316 µM
  IC50: > 10 µM
Second compound 0.1 µM
  IC50: > 10 µM
Second compound 0.316 µM
  IC50: > 10 µM
Second compound 1 µM
  IC50: > 10 µM
Second compound 3.16 µM
  IC50: > 10 µM
Second compound 10 µM
  IC50: > 10 µM
[1]
  viability, T/C: 104%
[2]
  viability, T/C: 102%
[3]
  viability, T/C: 106%
[4]
  viability, T/C: 97.9%
[5]
  viability, T/C: 102%
[6]
  viability, T/C: 88.7%
[7]
  viability, T/C: 118%
[8]
  viability, T/C: 96.9%
[9]
  viability, T/C: 105%
[10]
  viability, T/C: 98.9%
[11]
  viability, T/C: 96.9%
[12]
  viability, T/C: 89.4%
[13]
  viability, T/C: 109%
[14]
  viability, T/C: 105%
[15]
  viability, T/C: 92.3%
[16]
  viability, T/C: 101%
[17]
  viability, T/C: 99.4%
[18]
  viability, T/C: 78.9%
[19]
  viability, T/C: 107%
[20]
  viability, T/C: 95.5%
[21]
  viability, T/C: 97.2%
[22]
  viability, T/C: 108%
[23]
  viability, T/C: 103%
[24]
  viability, T/C: 79.6%
[25]
  viability, T/C: 94.5%
[26]
  viability, T/C: 94.9%
[27]
  viability, T/C: 105%
[28]
  viability, T/C: 86.7%
[29]
  viability, T/C: 96%
[30]
  viability, T/C: 84.6%
[31]
  viability, T/C: 92%
[32]
  viability, T/C: 104%
[33]
  viability, T/C: 86.9%
[34]
  viability, T/C: 83.6%
[35]
  viability, T/C: 73.7%
[36]
  viability, T/C: 69.3%
